Results on one compound are retold here after patent US9096538B2, “Pharmaceutical comprising PPAR agonist” (Senju Pharmaceutical Co., Ltd., priority 2005, dated 2015).

The structures appear in SMILES notation.

One assay deals with corneal epithelial wound. As to the kind of experiment: Test Example 9: healing of corneal epithelial wound after corneal epithelium scraping, eyedrop. The assay is classed as in vivo, rabbit. The following applies: 0.05% eyedrop; for ratio (%) of remaining corneal epithelial defect: initial value = 100%, average ± standard deviation, N = 4. An excerpt:
A male rabbit (Japanese white, […] LABES Co., Ltd.) was used. The experimental animal was used according to the International Guiding Principles for Biomedical Research Involving Animals.
As the test substance, a PPARδ agonist GW-501516 (Alexis Biochemicals) was used. A solution in which GW-501516 was suspended in the following vehicle to 0.05% was used as an eyedrop solution.
As a control for the test substance administration group, the aforementioned vehicle administration group containing no drug was set.
After the animal was subjected to systemic anesthesia by intramuscular injection (0.9 mL/kg) with a selactar (2% xylazine: Bayer): ketalar (5% ketamine: Sankyo)=0.5:1 mixed solution, an oxybuprocaine hydrochloride eyedrop solution (Benoxil eyedrop solution 0.4%; Santen Pharmaceutical Co., Ltd.) was administered, and eyeballs were exposed. A mark having a diameter of 6 mm was stamped on a corneal epithelium at a corneal central part using a trephine having a diameter of 6 mm, and a whole corneal epithelial layer within a stamped circumference was scraped using a handy rooter under a stereomicroscope. After scraping, a corneal surface was washed using physiological saline (Otsuka Pharmaceutical Factory Inc.), and eyeballs were returned into the orbit to complete the corneal epithelial scraping treatment.
A test substance eyedrop solution or an eyedrop solution vehicle was administered to treated eyes at 50 μL per once using a micropipette two times a day on the corneal epithelium scraping day and, on the following day and thereafter, four times a day until completion of the test.
At the time point at which corneal epithelium scraping of both eyes of all individuals was completed was defined as the test initiation time (0 hour) and, by quantitating the corneal epithelial defect area at 24, 38 and 48 hours thereafter, restoration of a corneal epithelium was assessed. That is, at each time point, 10 μL of a 0.1% fluorescein sodium (Wako Pure Chemical Industries, Ltd.) solution was administered to treated eyes, a photograph of an anterior ocular segment of the animal was immediately taken using a slit lamp equipped with a cobalt filter and thereby, a stained corneal epithelial defect region was recorded. A developed photograph was stored as a digital image in a computer, and an area of the stained corneal epithelial defect part was measured using image analysis software (Image-Pro Plus).
Regarding the corneal epithelial defect area measured at each time point, a value for each individual was calculated, assuming that its initial value was 100%, and this was adopted as a ratio of the remaining corneal epithelial defect.

For assay [1], the system named is monkey meibomian gland epithelial cell. As to the kind of experiment: Test Example 8: increase in number of monkey meibomian gland epithelial cells (Cell Counting Kit-8). The assay is classed as cell-based. The conditions noted are these: 3 x 48 hours; for Cell proliferation (%): no addition group = 100%, average ± standard deviation, N = 5. An excerpt:
For studying the effect of promoting cell proliferation by each test substance, a culture medium prepared by removing the supplement attached to DK-SFM, from DK-SFM, was used as a basal medium, while as a positive control for confirming the cell proliferation promoting effect, a culture medium with the supplement added thereto (basal medium+supplement) was used according to instructions of an DK-SFM preparation protocol. […] In the test, a monkey meibomian gland epithelial cell which had been cultured to subconfluent, suspended in a cell banker (Nippon Zenyaku Kogyo Co., Ltd.), and cryopreserved in liquid nitrogen was used. The cell which had been cryopreserved was thawed, and transferred to a 50 mL centrifuge tube and a 10-fold amount of DK-SFM was added thereto. […] Each 64 μL of this cell suspension was dispensed into each well so that the cell number per bottom area (0.32 cm^2) of the collagen-treated 96-well culture dish for tissue culture became 4×10^4 cells/cm^2. […] After 48 hours from initial culture medium exchange, the culture medium was exchanged with a freshly prepared culture medium of each of [1] to [4]. Further, after 48 hours therefrom, the culture medium was exchanged again with a freshly prepared culture medium of each of [1] to [4].
Background: Formazan colour is commonly taken as a measure of viable cells.

Assay [2] deals with rabbit corneal epithelial cell. As to the kind of experiment: Test Example 2: increase in cell number, cultured rabbit corneal epithelial cell, 120 hours (Cell Counting Kit-8). The assay is classed as cell-based. The following applies: no addition group = 100%, average ± standard deviation, N = 5. The procedure:
A male rabbit (Japanese white, weight: about 1.5 kg, […] LABES Co., Ltd.) was used. The experimental animal was used according to the International Guiding Principles for Biomedical Research Involving Animals.
A rabbit corneal epithelial cell was prepared using the same process as that of (Test example 1).
As the test substance, the following compounds were used. • PPARδ agonist: L-165041 (Sigma-Aldrich) and GW-501516 (Alexis)
For studying the effect of promoting cell proliferation by each test substance, a culture medium prepared by removing a mouse-derived epithelial growth factor (mEGF) attached to RCGM2, from RCGM2, was used as a basal medium, while as a positive control for confirming the effect of promoting cell proliferation, a medium with an mEGF added thereto (basal medium+10 ng/mL mEGF) was used according to instructions of an RCGM2 preparation protocol.
Collagen treatment of the culture dish was performed using the same process as that of (Test Example1).
In the test, a rabbit corneal epithelial cell which had been cultured to subconfluent in a culture dish having a diameter of 10 cm was used. After the culture medium was removed, the bottom of the culture dish was washed two times using D-PBS, to this was added 1 mL of trypsin-EDTA, this was incubated at 37° C. for 5 minutes and thereby, the cell was peeled from the bottom of the culture dish. After incubation, 9 mL of MEM containing 10% FBS was added to the culture dish to stop the enzymatic reaction, and this was subjected to centrifugation at room temperature and 1,500 rpm for 5 minutes to obtain a corneal epithelial cell layer. To the resulting cell was added an appropriate amount of RCGM2 to a cell concentration of 1×10^5 cells/mL to suspend the cell. Each 64 μL of this cell suspension was dispensed in each well at the cell number per bottom area (0.32 cm^2) of the collagen-treated 96-well culture dish for tissue culture of […]. […] After 24 hours from cell seeding, the culture medium was discarded, and each 100 μL of the following culture media were freshly dispensed into each well of the culture dish. • [1] Only basal medium (no addition group) • [2] Basal medium+mEGF (final concentration: 10 ng/mL; positive control group) • [3] Basal medium+L-165041 (final concentration: 0.1 μM and 1 μM) • [4] Basal medium+GW-501516 (final concentration: 0.01 μM and 0.1 μM)
The culture supernatant of each well was removed every 48 hours from exchange of the culture medium containing a test substance, and each 100 μL of the freshly prepared culture medium was dispensed into each well.

Assay [3] relates to normal human corneal epithelial cell. As to the kind of experiment: Test Example 5: increase in cell number, normal human corneal epithelial cell, 24 hours (Cell Counting Kit-8). The assay is classed as cell-based. The conditions noted are these: no addition group = 100%, average ± standard deviation, N = 3 to 4. The procedure:
(§1) A normal human corneal epithelial cell (KURABO) was used.
As the test substance, the following compounds were used. PPARδ agonist: L-165041 (Sigma-Aldrich), GW-501516 (Alexis)
In addition, as a positive control for confirming the cell proliferation promoting effect, a medium in which a mouse-derived epithelial growth factor (mEGF) contained in an HCGS proliferation additive set (KURABO) was added to a basal medium (basal medium+1 ng/mL mEGF) was used.
This cell suspension was seeded on a fibronectin-coated multiwell plate (24 well, BECTON DICKINSON) so that the cell number became 2×10^4 cells/500 μL/well (since the bottom area is 2 cm^2, the number is 1×10^4 cells/cm^2).
Further, 24 hours thereafter, the culture medium was exchanged with each 400 μL of the following culture media. • [1] Only basal medium (no addition group) • [2] Basal medium+mEGF (final concentration: 1 ng/mL; positive control group) • [3] Basal medium+L-165041 (final concentration: 0.01 μM and 0.1 μM) • [4] Basal medium+GW-501516 (final concentration: 0.001 μM and 0.01 μM)

Assay [4] has the same test system. As to the kind of experiment: Test Example 6: increase in cell number, normal human corneal epithelial cell, 48 hours (Cell Counting Kit-8). The assay is classed as cell-based. The conditions noted are these: 10^−8 M, no addition group = 100%, average ± standard deviation, N = 4 to 5. The procedure: as §1
As the test substance, the following compounds were used. • PPARδ Agonist: GW-501516 (Alexis), GW-0742 (Sigma-Aldrich)
Only basal medium (no addition group) • [2] Basal medium+GW-501516 (final concentration: 0.01 μM) • [3] Basal medium+GW-0742 (final concentration: 0.01 μM)

Take `Cc1cc(SCc2sc(-c3ccc(C(F)(F)F)cc3)nc2C)ccc1OCC(=O)O` [GW-501516, (2-methyl-4-(((4-methyl-2-(4-(trifluoromethyl)phenyl)-5-thiazolyl)methyl)thio)phenoxy)acetic acid]: the “ratio (%) of remaining corneal epithelial defect” value in the assay with corneal epithelial wound (0 hour (initial value)) is reported as 100.0 ± 6.5%; with corneal epithelial wound (24 hours later, 50 μL), 25.3 ± 3.1 %; in the assay on corneal epithelial wound (38 hours later, 50 μL) it was 0.2 ± 0.2 %. Also, the “ratio of the corneal epithelial defect compared to vehicle (in words)” value with corneal epithelial wound (24 hours and 38 hours after corneal epithelium scraping) was “significantly decreased”. The “corneal epithelial defect (in words)” value with corneal epithelial wound (after 48 hours, all individuals (vehicle group too)) is given as “disappeared in all individuals”. Moreover, in assay [1] (10^−7 M), the “cell proliferation compared to the no addition group (in words)” value is “significantly higher than in the no addition group”. For the same compound, the “Cell proliferation (%)” value is 156.1 ± 18.9% in assay [1] (10^−7 M); 133.3 ± 7.4% in assay [1] (10^−8 M); 213.2 ± 34.0% in assay [2] (10^−7 M); 223.9 ± 24.1% in assay [2] (10^−8 M); 125.7 ± 2.3% in assay [3] (10^−8 M); 133.1 ± 3.7% in assay [3] (10^−9 M). Further, the “Cell proliferation (%)” value in assay [4] is 129.2 ± 7.5%.
